What was measured:
Format in all cases: physicochemical
[1] = Stability Studies - One Week Study; settings: 40° C./75% RH or 80° C./under ambient light for 1 week
Description: About 15 mg of Compound 1, Forms 1 and 2 were separately placed at either 40° C./75% RH or 80° C./under ambient light for 1 week. The resulting solids were analysed by XRPD and HPLC purity. No changes in Form 1 or Form 2 were observed under these conditions after 1 week.

[2] = Stability Studies - Eight Week Study; settings: 40° C./75% RH (uncapped), 80° C. (capped), ambient light and temperature (approx. 22° C.)
Description: About 5 mg of Compound 1, Form 1 was weighed into twenty-four, 1.5 mL glass vials. Each vial was placed at either 40° C./75% RH (uncapped vial), 80° C. (capped vial) and under ambient light and temperature (approx. 22° C., capped vial) for a total of 8 weeks. […] was removed from each condition for XRPD, ^1H NMR and HPLC purity analysis at 1 week, 2 weeks, 4 weeks and 8 weeks.

[3] = Dynamic Vapor Sorption (DVS); settings: for form by post-DVS XRPD analysis: after exposure to DVS humidity conditions
Description: Approximately, 10-20 mg of sample was placed into a mesh vapour sorption balance pan and loaded into a DVS Intrinsic dynamic vapour sorption balance by Surface Measurement Systems. The sample was subjected to a ramping profile from 40-90% relative humidity (RH) at 10% increments, maintaining the sample at each step until a stable weight had been achieved (dm/dt 0.004%, minimum step length 30 minutes, maximum step length 500 minutes) at 25° C. After completion of the sorption cycle, the sample was dried using the same procedure to 0% RH and then a second sorption cycle back to 40% RH. Two cycles were performed. The weight change during the sorption/desorption cycles were plotted, allowing for the hygroscopic nature of the sample to be determined. XRPD analysis was then carried out on any solid retained.

| changes by XRPD and HPLC purity [1] | change in purity by HPLC ([2]; 8 weeks) | change by XRPD and NMR analysis ([2]; after 8 weeks) | form by post-DVS XRPD analysis ([3]; listed as Form 1 of Compound 1, hydrochloride) | water uptake by DVS ([3]; at 90% RH, 25° C.) | change in mass / mass uptake by DVS ([3]; at 90% RH, 25° C., listed as Form 1 of Compound 1, hydrochloride) | hygroscopic nature by DVS ([3]; ramping 40-90% RH, 25° C., two cycles) | form by post-DVS XRPD analysis ([3]; listed as Form 2 of Compound 1, hydrochloride) | change in mass / mass uptake by DVS ([3]; at 90% RH, 25° C., listed as Form 2 of Compound 1, hydrochloride) | SMILES |
| --- | --- | --- | --- | --- | --- | --- | --- | --- | --- |
| No changes | no significant change | no change | remained as Form 1 | 0.2 equiv. of water | +0.8% | slightly hygroscopic |  |  | C[C@@H]1CNC(=O)c2cc3ccc(C(=O)Nc4cnn(Cc5ccc(N)cc5)c4)nc3n21.Cl [Compound 1, Form 1, (R)—N-(1-(4-aminobenzyl)-1H-pyrazol-4-yl)-9-methyl-6-oxo-6,7,8,9-tetrahydropyrido[3′,2′:4,5]pyrrolo[1,2-a]pyrazine-2-carboxamide hydrochloride] |
|  |  |  |  |  |  |  | no change in form | 1.8% | C[C@@H]1CNC(=O)c2cc3ccc(C(=O)Nc4cnn(Cc5ccc(N)cc5)c4)nc3n21.Cl [Compound 1, Form 2, (R)—N-(1-(4-aminobenzyl)-1H-pyrazol-4-yl)-9-methyl-6-oxo-6,7,8,9-tetrahydropyrido[3′,2′:4,5]pyrrolo[1,2-a]pyrazine-2-carboxamide hydrochloride] |
